From patent publication US8420130B1, “Pharmaceutical formulation of a didemnin compound” (Pharma Mar S.A., priority 1998, dated 2013)

Assay: Solubility testing of aplidine
Type: physicochemical
Details: water
Description: The antitumour agent aplidine (dehydrodidemnin B) is a natural occurring cyclic depsipeptide isolated from the Mediterranean runicate Aplidium albicans. Aplidine has been characterised by using several chromatographic and spectrometric techniques. […] Moreover, the long-term stability of aplidine in solution is currently unknown.

**Q.** Which aqueous solubility does the source give for dehydrodidemnin B [aplidine] here?
**A.** poor aqueous solubility
